Source: patent US6291527A (priority 1998, dated 2001)
Entries after “also recorded” stand apart in the source; their conditions may differ. Where two headings read alike, the source gives them in different places.

Key:
[1] = tested on: inflammatory exudate (IE); assay: foreign body (sponge) method in the rat: inflammatory exudate volume; type: in vivo; details: rat, oral, 10 mg/kg, 8 hours
Experimental: (§1) These tests involved the use of 100 male CD strain rats (Charles River, Calco, LC, Italy) weighing 180±8 g. The animals were fasted for 12 hours (water ad libitum) before being used for the experiment.
(§2) The inflammatory reaction with the formation of exudate was induced by using sterilized polyester sponges (4×1.5×0.5 cm) soaked in carrageen dissolved at a 2% concentration in sterile physiological solution. The rats were anesthetized lightly with ether and two sponges per rat were implanted subcutaneously in a previously shaven dorsal area.
(§3) The sponges were removed 8 hours later after having sacrificed the animals by ether euthanasia, and immediately placed in large polyethylene 50 ml test tubes containing 10 ml of heparinized physiological solution. The test tubes were then subjected to centrifugation (1000 rotations; 15 minutes), followed by removal of the sponges and accurate measurement of the volume of the remaining fluid. Always using the Higgs et al. method, the acid lipids present in the fluid were extracted in chloroform with prior dilution in ethanol and acidification to pH 3. After complete evaporation of the chloroform, the remaining dry residue was dissolved in physiological solution and used for the immunoenzymatic assay of prostaglandin E2 (PGE2).
(§4) All the other reagents used for the tests were purchased from Merck-Bracco (Milan, Italy).

[2] = in vivo; cited from earlier work
[3] = high quantities, intact and abraded skin, also long term; cited from earlier work
[4] = tested on: prostaglandin E2 (PGE2); assay: foreign body (sponge) method in the rat: PGE2 in the inflammatory exudate (immunoenzymatic assay); type: in vivo; details: rat, oral, 10 mg/kg, 8 hours
Experimental: as §1, §2, §3, §4

[5] = cited from earlier work
[6] = Ketoprofen gel, cited from earlier work
[7] = 100 mg i.m., cited from earlier work
[8] = 100 mg i.m., approx. 3 hours before operation; cited from earlier work
[9] = tested on: rat; details: cited from earlier work
[10] = tested on: carrageen edema; assay: carrageen edema test in the rat (hind paw volume, plethysmometer); details: rat, oral
[11] = synovial fluid, 50 mg oral; cited from earlier work
[12] = once a day for three days, 12 hours

## CC(C(=O)O)c1cccc(C(=O)c2ccccc2)c1 (stereo not drawn) [Ketoprofen, 3-Benzoyl-α-methylbenzeneacetic acid]
[1]
  % inhibition versus controls of IE: 58.6%
[1]; mean ± MSE, controls 5.15 ± 0.28
  IE (inflammatory exudate) volume: 2.13 ± 0.15 mL
[2]
  elimination with the feces: 1%
[3]
  tolerability / toxicity following dermal application: excellent tolerability and lack of acute and chronic toxicity; also recorded: did not induce any local or general harm
[4]
  % inhibition versus controls of PGE2: 49.7%
[4]; mean, controls 98.7 ± 4.7
  PGE2 concentration in the inflammatory exudate: 49.6 ng/mL
[5]; intramuscular
  time to peak concentration: ≤ 30 min
[5]; various routes of administration
  intraarticular concentrations vs serum and plasma, conclusion: reach peak levels later with respect to those observable in serum and plasma, but remain at higher levels than the latter for a longer period after treatment and always with higher values compared to those present in circulatory flow
[6]; 2nd hour, matrix not stated
  concentration when first detectable: 6.3 ng/mL
[6]; [12]
  concentration in capsular tissue: 2.36 µg/g
  concentration in intraarticular adipose tissue: 4.70 µg/g
  concentration in synovial fluid: 1.31 µg/g
[6]
  concentration in the joint vs systemic circulation: greater active substance concentration in the joint than in systemic circulation
  duration of constant values: 12 h
  time to peak concentration: after six hours
[7]; 15 minutes
  penetration into the joints: penetrates promptly into the joints
[7]; 3.5 hours
  serum and synovial concentration at equilibrium: 1.3 µg/mL
[7]
  mean resident time in the joints vs serum: about three times longer than that observed in serum
  time of equilibrium of serum and synovial concentrations: 3.5 h
[7]; serum
  AUC of the free Ketoprofen fraction in serum: 127 ng·h/mL
  time of maximum serum concentration: 30 min
[7]; synovial fluid
  AUC of the free Ketoprofen fraction in synovial fluid: 119 ng·h/mL
[8]
  mean value in blood: 1.39 µg/g
  mean value in bone: 0.25 µg/g
  mean value in fat: 0.28 µg/g
  mean value in muscle: 0.26 µg/g
  mean value in synovial fluid: 0.85 µg/g
  mean value in synovial membrane: 0.32 µg/g
[9]
  oral LD50: 165 mg/kg
[10]
  anti-inflammatory / anti-edematogenic effect: also resulted as having anti-inflammatory activity
[10]; 10 mg/kg, 1st hour, mean ± MSE
  evolution of paw volume (delta in ml) at 1st hour: 0.19 ± 0.02 mL
[10]; 10 mg/kg, 2nd hour, mean ± MSE
  evolution of paw volume (delta in ml) at 2nd hour: 0.33 ± 0.03 mL
[10]; 10 mg/kg, 3rd hour, mean ± MSE
  evolution of paw volume (delta in ml) at 3rd hour: 0.41 ± 0.02 mL
[10]; 10 mg/kg, 4th hour, mean ± MSE
  evolution of paw volume (delta in ml) at 4th hour: 0.42 ± 0.02 mL
[10]; 10 mg/kg, 5th hour, mean ± MSE
  evolution of paw volume (delta in ml) at 5th hour: 0.40 ± 0.03 mL
[10]; 10 mg/kg, 6th hour, mean ± MSE
  evolution of paw volume (delta in ml) at 6th hour: 0.37 ± 0.03 mL
[10]; 10 mg/kg, p < 0.001
  % inhibition vs controls (paw edema AUC): 54.1%
[10]; 10 mg/kg, paw volume (delta in ml) vs time (0 to 6 hours), controls 4.23 ± 0.26
  AUC (mean ± MSE) of increase in paw volume: 1.94 ± 0.10
[11]
  time of synovial peak: approximately two hours after the plasma peak
